The target of one assay is T1, SMARCA2-HiBiT (Homo sapiens, UniProt P51531).
T1 construct: SMARCA2-HiBiT knock-in Hela monoclonal cell (CS302366); host or cells: HeLa monoclonal knock-in line (CRISPR HiBiT knock-in at the endogenous locus, heterozygous)
The assay is described as follows: SMARCA2 HiBiT degradation assay in HeLa cells. In kind it is cell-based. The conditions noted are these: 18 hours incubation; for DC50: read-out: HeLa_HiBit-SM2 DC50; for Dmax: HeLa, read-out: HeLa-HiBit-SM2 Dmax (%). In outline:
(§1)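 HeLa monoclonal lines with heterozygous HiBiT knock-in were seeded at 2500 cells/well in EMEM with 10% FBS and treated with compound for 18 h at 37 °C. Remaining tagged protein was measured by Nano-Glo HiBiT lytic luminescence after 30–60 min at RT, and values came from curve fitting.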
On the technique in general: The HiBiT peptide binds its large partner to form an active luciferase.

Another assay addresses T2, SMARCA4-HiBiT (Homo sapiens, UniProt P51532).
T2 construct: SMARCA4-HiBiT knock-in Hela monoclonal cell (CS3023226); host or cells: HeLa monoclonal knock-in line (CRISPR HiBiT knock-in at the endogenous locus, heterozygous)
The assay is described as follows: SMARCA4 HiBiT degradation assay in HeLa cells. To be noted: 18 hours incubation; for DC50: read-out: HeLa-HiBit-SM4 DC50; for Dmax: HeLa, read-out: HeLa-HiBit-SM4 Dmax (%). In kind it is cell-based. In outline:
as §1

Molecules are shown by their SMILES. Some results are limits rather than exact numbers.

The values below come from US12448389B2, “BRM targeting compounds and associated methods of use” (Prelude Therapeutics Incorporated, priority 2020, dated 2025).

T1 sequence (P51531 whole entry): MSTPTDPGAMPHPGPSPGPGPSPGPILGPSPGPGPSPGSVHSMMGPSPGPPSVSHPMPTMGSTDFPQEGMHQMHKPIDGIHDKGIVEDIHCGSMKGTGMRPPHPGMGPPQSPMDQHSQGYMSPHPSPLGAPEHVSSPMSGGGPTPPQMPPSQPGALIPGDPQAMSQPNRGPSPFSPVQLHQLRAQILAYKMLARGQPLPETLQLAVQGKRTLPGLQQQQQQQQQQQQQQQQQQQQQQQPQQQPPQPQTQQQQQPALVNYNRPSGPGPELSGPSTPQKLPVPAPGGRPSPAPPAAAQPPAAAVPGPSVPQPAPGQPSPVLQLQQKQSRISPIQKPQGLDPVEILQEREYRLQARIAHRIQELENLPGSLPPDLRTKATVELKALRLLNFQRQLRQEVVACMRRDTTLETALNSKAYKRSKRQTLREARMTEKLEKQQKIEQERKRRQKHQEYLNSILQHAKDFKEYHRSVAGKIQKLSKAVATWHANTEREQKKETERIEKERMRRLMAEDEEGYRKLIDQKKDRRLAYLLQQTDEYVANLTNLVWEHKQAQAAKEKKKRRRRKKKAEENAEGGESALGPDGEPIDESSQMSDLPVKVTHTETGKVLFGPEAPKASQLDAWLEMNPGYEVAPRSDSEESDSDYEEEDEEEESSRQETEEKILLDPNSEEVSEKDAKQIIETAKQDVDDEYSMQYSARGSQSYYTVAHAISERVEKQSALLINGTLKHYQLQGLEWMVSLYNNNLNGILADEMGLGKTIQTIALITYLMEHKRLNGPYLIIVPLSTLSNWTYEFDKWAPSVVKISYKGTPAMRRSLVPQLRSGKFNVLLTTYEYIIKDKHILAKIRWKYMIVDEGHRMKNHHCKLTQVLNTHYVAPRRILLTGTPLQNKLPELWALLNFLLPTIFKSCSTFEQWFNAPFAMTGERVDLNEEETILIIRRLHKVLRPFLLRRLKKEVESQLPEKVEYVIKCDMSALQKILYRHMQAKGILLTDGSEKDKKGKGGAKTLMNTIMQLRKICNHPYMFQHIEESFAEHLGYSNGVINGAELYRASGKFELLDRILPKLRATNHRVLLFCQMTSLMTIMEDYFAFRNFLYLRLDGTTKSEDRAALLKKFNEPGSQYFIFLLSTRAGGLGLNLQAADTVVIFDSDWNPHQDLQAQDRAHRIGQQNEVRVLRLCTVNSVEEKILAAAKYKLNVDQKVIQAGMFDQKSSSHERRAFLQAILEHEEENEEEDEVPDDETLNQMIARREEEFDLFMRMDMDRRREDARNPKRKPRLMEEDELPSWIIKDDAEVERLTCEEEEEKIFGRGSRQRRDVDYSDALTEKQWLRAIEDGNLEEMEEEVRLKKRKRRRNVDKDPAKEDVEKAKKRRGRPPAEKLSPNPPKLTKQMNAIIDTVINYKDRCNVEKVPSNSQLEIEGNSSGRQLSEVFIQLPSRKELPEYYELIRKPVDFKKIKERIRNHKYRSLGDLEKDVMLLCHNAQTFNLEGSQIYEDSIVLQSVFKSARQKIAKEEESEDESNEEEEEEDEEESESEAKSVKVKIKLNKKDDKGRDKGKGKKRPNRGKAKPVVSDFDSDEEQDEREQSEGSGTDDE
T2 sequence (P51532 whole entry): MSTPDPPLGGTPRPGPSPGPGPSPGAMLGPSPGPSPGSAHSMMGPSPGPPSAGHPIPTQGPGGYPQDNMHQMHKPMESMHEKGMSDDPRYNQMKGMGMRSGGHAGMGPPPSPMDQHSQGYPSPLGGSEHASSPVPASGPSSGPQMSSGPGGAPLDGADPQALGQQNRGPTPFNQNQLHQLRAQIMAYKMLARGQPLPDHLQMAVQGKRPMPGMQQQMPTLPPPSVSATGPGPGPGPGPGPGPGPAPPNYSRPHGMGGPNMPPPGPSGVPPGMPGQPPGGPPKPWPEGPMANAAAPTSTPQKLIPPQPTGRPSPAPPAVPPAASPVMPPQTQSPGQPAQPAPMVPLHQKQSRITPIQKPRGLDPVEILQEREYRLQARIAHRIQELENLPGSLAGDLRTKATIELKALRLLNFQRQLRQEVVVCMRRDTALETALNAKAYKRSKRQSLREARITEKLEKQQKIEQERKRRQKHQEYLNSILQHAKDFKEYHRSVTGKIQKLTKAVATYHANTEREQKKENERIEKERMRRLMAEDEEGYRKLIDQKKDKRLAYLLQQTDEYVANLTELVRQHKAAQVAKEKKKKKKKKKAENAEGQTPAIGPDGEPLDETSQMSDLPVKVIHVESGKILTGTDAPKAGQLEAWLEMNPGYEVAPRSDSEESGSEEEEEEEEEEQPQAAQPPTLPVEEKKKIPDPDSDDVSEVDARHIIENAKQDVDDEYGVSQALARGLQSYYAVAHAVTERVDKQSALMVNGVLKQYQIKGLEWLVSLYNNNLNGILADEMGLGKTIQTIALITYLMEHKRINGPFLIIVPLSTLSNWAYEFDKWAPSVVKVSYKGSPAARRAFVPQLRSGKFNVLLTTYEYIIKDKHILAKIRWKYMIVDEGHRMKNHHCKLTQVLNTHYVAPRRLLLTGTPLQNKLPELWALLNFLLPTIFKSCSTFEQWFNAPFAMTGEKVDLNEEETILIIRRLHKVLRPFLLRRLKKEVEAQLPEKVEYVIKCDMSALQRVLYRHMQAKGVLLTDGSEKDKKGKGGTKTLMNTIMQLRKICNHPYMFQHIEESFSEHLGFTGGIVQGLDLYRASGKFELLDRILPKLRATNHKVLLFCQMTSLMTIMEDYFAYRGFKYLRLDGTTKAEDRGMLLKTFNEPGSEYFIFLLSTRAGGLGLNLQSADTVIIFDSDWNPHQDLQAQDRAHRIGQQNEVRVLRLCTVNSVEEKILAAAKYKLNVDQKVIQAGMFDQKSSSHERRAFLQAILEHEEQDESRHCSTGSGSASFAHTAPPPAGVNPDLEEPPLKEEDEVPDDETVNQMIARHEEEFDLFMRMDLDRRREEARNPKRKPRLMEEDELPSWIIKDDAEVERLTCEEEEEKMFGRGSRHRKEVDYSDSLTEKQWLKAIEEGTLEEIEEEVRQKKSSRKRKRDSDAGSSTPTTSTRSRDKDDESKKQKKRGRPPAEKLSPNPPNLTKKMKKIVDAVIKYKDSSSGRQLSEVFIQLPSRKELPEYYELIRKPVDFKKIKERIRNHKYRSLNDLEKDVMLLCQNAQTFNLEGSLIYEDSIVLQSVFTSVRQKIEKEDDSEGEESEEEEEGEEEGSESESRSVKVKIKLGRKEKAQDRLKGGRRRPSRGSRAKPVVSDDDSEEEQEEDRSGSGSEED

One may read the DC50 as the concentration giving 50% degradation. What is called Dmax is the greatest extent of degradation seen. As for `O=C1CCC(N2C(=O)c3ccc(N4CCC(F)(F)C(CN5C[C@@H]6[C@H](C5)[C@H]6CN5CCN6c7cc(-c8ccccc8O)nnc7NC[C@H]6C5)C4)cc3C2=O)C(=O)N1` (stereo partly drawn) [Example 55, 5-(4,4-difluoro-3-(((1R,5S,6r)-6-(((S)-2-(2-hydroxyphenyl)-5,6,6a,7,9,10-hexahydro-8H-pyrazino[1′,2′:4,5]pyrazino[2,3-c]pyridazin-8-yl)methyl)-3-azabicyclo[3.1.0]hexan-3-yl)methyl)piperidin-1-yl)-2-(2,6-dioxopiperidin-3-yl)isoindoline-1,3-dione], at SMARCA2-HiBiT, the DC50 fell in the range of 10 to 100 nM and the Dmax lay within 50 to 75%. Also, on SMARCA4-HiBiT, the DC50 lay in the range of 10 to 100 nM and the Dmax lay in the range of 75 to 85%.

On to `CN1CCN(c2ccc3c(c2)C(=O)N(C2CCC(=O)NC2=O)C3=O)CC1CN1C[C@@H]2[C@H](C1)[C@H]2CN1CCN2c3cc(-c4ccccc4O)nnc3NC[C@H]2C1` (stereo partly drawn) [Example 56, 2-(2,6-dioxopiperidin-3-yl)-5-(3-(((1R,5S,6r)-6-(((S)-2-(2-hydroxyphenyl)-5,6,6a,7,9,10-hexahydro-8H-pyrazino[1′,2′:4,5]pyrazino[2,3-c]pyridazin-8-yl)methyl)-3-azabicyclo[3.1.0]hexan-3-yl)methyl)-4-methylpiperazin-1-yl)isoindoline-1,3-dione], for which the half-maximal degradation concentration (DC50) at SMARCA2-HiBiT is below 10 nM; at SMARCA4-HiBiT it was 10 to 100 nM. Also, the values for the Dmax on SMARCA2-HiBiT and at SMARCA4-HiBiT were 50 to 75% and 75 to 85%, respectively.

Consider `C[C@H]1CN2c3cc(-c4ccccc4O)nnc3NC[C@H]2CN1C[C@H]1[C@@H]2CN(CC3CCN(c4ccc5c(c4)CN(C4CCC(=O)NC4=O)C5=O)CC3)C[C@@H]21` (stereo partly drawn) [Example 57, 3-(5-(4-(((1R,5S,6r)-6-(((6aS,9S)-2-(2-hydroxyphenyl)-9-methyl-5,6,6a,7,9,10-hexahydro-8H-pyrazino[1′,2′:4,5]pyrazino[2,3-c]pyridazin-8-yl)methyl)-3-azabicyclo[3.1.0]hexan-3-yl)methyl)piperidin-1-yl)-1-oxoisoindolin-2-yl)piperidine-2,6-dione], for which, on SMARCA2-HiBiT, the DC50 is below 10 nM and the Dmax is 50 to 75%. At SMARCA4-HiBiT, the DC50 is below 10 nM and the Dmax is at most 50%.

As for `O=C1CCC(N2C(=O)c3ccc(N4Cc5cnc(N6C[C@@H]7[C@@H](CN8CCN9c%10cc(-c%11ccccc%11O)nnc%10NC[C@H]9C8)[C@@H]7C6)nc5C4)cc3C2=O)C(=O)N1` (stereo partly drawn) [Example 58, 2-(2,6-dioxopiperidin-3-yl)-5-(2-((1R,5S,6s)-6-(((S)-2-(2-hydroxyphenyl)-5,6,6a,7,9,10-hexahydro-8H-pyrazino[1′,2′:4,5]pyrazino[2,3-c]pyridazin-8-yl)methyl)-3-azabicyclo[3.1.0]hexan-3-yl)-5,7-dihydro-6H-pyrrolo[3,4-d]pyrimidin-6-yl) isoindoline-1,3-dione], the DC50 at SMARCA2-HiBiT is below 10 nM; on SMARCA4-HiBiT it was 10 to 100 nM. Further, the Dmax on SMARCA2-HiBiT is 50 to 75%; at SMARCA4-HiBiT it was at most 50%.

With `CC1(CN2C[C@@H]3[C@@H](CN4CCN5c6cc(-c7ccccc7O)nnc6NC[C@H]5C4)[C@@H]3C2)CN(c2ccc3c(c2)C(=O)N(C2CCC(=O)NC2=O)C3=O)CCO1` (stereo partly drawn) [Example 59, 2-(2,6-dioxopiperidin-3-yl)-5-(2-(((1R,5S,6s)-6-(((S)-2-(2-hydroxyphenyl)-5,6,6a,7,9,10-hexahydro-8H-pyrazino[1′,2′:4,5]pyrazino[2,3-c]pyridazin-8-yl)methyl)-3-azabicyclo[3.1.0]hexan-3-yl)methyl)-2-methylmorpholino)isoindoline-1,3-dione], on SMARCA2-HiBiT, the 50% degradation concentration (DC50) was below 10 nM and the Dmax lay in the range of 75 to 85%. In addition, on SMARCA4-HiBiT, the DC50 was in the range of 10 to 100 nM and the Dmax was 75 to 85%.

For the compound `O=C1CCC(N2C(=O)c3ccc(N4CCC(CN5CCc6cnc(N7CCN8c9cc(-c%10ccccc%10O)nnc9NC[C@H]8C7)nc6C5)CC4)cc3C2=O)C(=O)N1` (stereo partly drawn) [Example 60, 2-(2,6-dioxopiperidin-3-yl)-5-(4-((2-((S)-2-(2-hydroxyphenyl)-5,6,6a,7,9,10-hexahydro-8H-pyrazino[1′,2′:4,5]pyrazino[2,3-c]pyridazin-8-yl)-5,8-dihydropyrido[3,4-d]pyrimidin-7(6H)-yl)methyl)piperidin-1-yl) isoindoline-1,3-dione], at SMARCA2-HiBiT, the DC50 is below 10 nM and the Dmax was at most 50%. On SMARCA4-HiBiT, the DC50 was below 10 nM and the Dmax was at most 50%.

On to `O=C1CCC(N2Cc3ccc(N4CCC(CN5Cc6cnc(N7CCN8c9cc(-c%10ccccc%10O)nnc9NC[C@H]8C7)nc6C5)CC4)cc3C2=O)C(=O)N1` (stereo partly drawn) [Example 61, 3-(6-(4-((2-((S)-2-(2-hydroxyphenyl)-5,6,6a,7,9,10-hexahydro-8H-pyrazino[1′,2′:4,5]pyrazino[2,3-c]pyridazin-8-yl)-5,7-dihydro-6H-pyrrolo[3,4-d]pyrimidin-6-yl)methyl)piperidin-1-yl)-1-oxoisoindolin-2-yl)piperidine-2,6-dione], for which, at SMARCA2-HiBiT, the DC50 was below 10 nM and the greatest degradation seen (Dmax) was at most 50%. Besides, on SMARCA4-HiBiT, the DC50 is below 10 nM and the Dmax is at most 50%.

For the compound `O=C1CCC(N2Cc3cc(CCN4CCC(N5CCC(N6CCN7c8cc(-c9ccccc9O)nnc8NC[C@H]7C6)CC5)CC4)ccc3C2=O)C(=O)N1` (stereo partly drawn) [Example 62, 3-(5-(2-(4-((S)-2-(2-hydroxyphenyl)-5,6,6a,7,9,10-hexahydro-8H-pyrazino[1′,2′:4,5]pyrazino[2,3-c]pyridazin-8-yl)-[1,4′-bipiperidin]-1′-yl)ethyl)-1-oxoisoindolin-2-yl)piperidine-2,6-dione], the DC50 at SMARCA2-HiBiT and on SMARCA4-HiBiT was below 10 nM in each case. Also, the Dmax at SMARCA2-HiBiT and on SMARCA4-HiBiT was above 85% each time.

Turning to `O=C1CCC(N2Cc3cc(CN4CCC(N5CCC(N6CCN7c8cc(-c9ccccc9O)nnc8NC[C@H]7C6)CC5)CC4)ccc3C2=O)C(=O)N1` (stereo partly drawn) [Example 63, 3-(5-((4-((S)-2-(2-hydroxyphenyl)-5,6,6a,7,9,10-hexahydro-8H-pyrazino[1′,2′:4,5]pyrazino[2,3-c]pyridazin-8-yl)-[1,4′-bipiperidin]-1′-yl)methyl)-1-oxoisoindolin-2-yl)piperidine-2,6-dione], on SMARCA2-HiBiT, the half-maximal degradation concentration (DC50) is below 10 nM and the maximal degradation (Dmax) is above 85%. In addition, on SMARCA4-HiBiT, the DC50 was below 10 nM and the Dmax is above 85%.

On to `O=C1CCC(N2Cc3cc(CN4CCC(CCc5cnc(N6CCN7c8cc(-c9ccccc9O)nnc8NC[C@H]7C6)nc5)CC4)ccc3C2=O)C(=O)N1` (stereo partly drawn) [Example 64, 3-(5-((4-(2-(2-((S)-2-(2-hydroxyphenyl)-5,6,6a,7,9,10-hexahydro-8H-pyrazino[1′,2′:4,5]pyrazino[2,3-c]pyridazin-8-yl)pyrimidin-5-yl)ethyl)piperidin-1-yl)methyl)-1-oxoisoindolin-2-yl)piperidine-2,6-dione], for which, at SMARCA2-HiBiT, the DC50 is below 10 nM and the Dmax was above 85%. For the same compound, on SMARCA4-HiBiT, the DC50 is below 10 nM and the Dmax was 75 to 85%.

For the compound `O=C1CCC(N2Cc3cc(CN4CCC(CCCN5CCC(N6CCN7c8cc(-c9ccccc9O)nnc8NC[C@H]7C6)CC5)CC4)ccc3C2=O)C(=O)N1` (stereo partly drawn) [Example 65, 3-(5-((4-(3-(4-((S)-2-(2-hydroxyphenyl)-5,6,6a,7,9,10-hexahydro-8H-pyrazino[1′,2′:4,5]pyrazino[2,3-c]pyridazin-8-yl)piperidin-1-yl)propyl)piperidin-1-yl)methyl)-1-oxoisoindolin-2-yl)piperidine-2,6-dione], on SMARCA2-HiBiT, the DC50 was below 10 nM and the maximal degradation (Dmax) was above 85%. Moreover, at SMARCA4-HiBiT, the DC50 was below 10 nM and the Dmax was above 85%.

On to `O=C1CCC(N2C(=O)c3cccc(N4CCC(N5CCC(N6CCN7c8cc(-c9ccccc9O)nnc8NC[C@H]7C6)CC5)CC4)c3C2=O)C(=O)N1` (stereo partly drawn) [Example 66, 2-(2,6-dioxopiperidin-3-yl)-4-(4-((S)-2-(2-hydroxyphenyl)-5,6,6a,7,9,10-hexahydro-8H-pyrazino[1′,2′:4,5]pyrazino[2,3-c]pyridazin-8-yl)-[1,4′-bipiperidin]-1′-yl) isoindoline-1,3-dione], for which the DC50 on SMARCA2-HiBiT and at SMARCA4-HiBiT was below 10 nM in each case. The Dmax on SMARCA2-HiBiT and on SMARCA4-HiBiT was above 85% throughout.

For `O=C1CCC(N2C(=O)c3cccc(N4CCC(OCCN5CCC(N6CCN7c8cc(-c9ccccc9O)nnc8NC[C@H]7C6)CC5)CC4)c3C2=O)C(=O)N1` (stereo partly drawn) [Example 67, 2-(2,6-dioxopiperidin-3-yl)-4-(4-(2-(4-((S)-2-(2-hydroxyphenyl)-5,6,6a,7,9,10-hexahydro-8H-pyrazino[1′,2′:4,5]pyrazino[2,3-c]pyridazin-8-yl)piperidin-1-yl)ethoxy)piperidin-1-yl)isoindoline-1,3-dione], the DC50 on SMARCA2-HiBiT and at SMARCA4-HiBiT was below 10 nM each time. The Dmax at SMARCA2-HiBiT and on SMARCA4-HiBiT was 50 to 75% each time.

Regarding `CN(CCN1CCC(N2CCN3c4cc(-c5ccccc5O)nnc4NC[C@H]3C2)CC1)c1cccc2c1C(=O)N(C1CCC(=O)NC1=O)C2=O` (stereo partly drawn) [Example 68, 2-(2,6-dioxopiperidin-3-yl)-4-((2-(4-((S)-2-(2-hydroxyphenyl)-5,6,6a,7,9,10-hexahydro-8H-pyrazino[1′,2′:4,5]pyrazino[2,3-c]pyridazin-8-yl)piperidin-1-yl)ethyl)(methyl)amino)isoindoline-1,3-dione], the figures for the DC50 at SMARCA2-HiBiT and at SMARCA4-HiBiT were below 10 nM and 10 to 100 nM, respectively. Moreover, the Dmax on SMARCA2-HiBiT and at SMARCA4-HiBiT was above 85% in each case.
